Measured values as given in article PMC4815073, “Targeting of tubulin polymerization and induction of mitotic blockage by Methyl 2-(5-fluoro-2-hydroxyphenyl)-1H-benzo[d]imidazole-5-carboxylate (MBIC) in human cervical cancer HeLa cell” (Journal of Experimental & Clinical Cancer Research : CR, 2016).

Experiments:
WRL-68 cells = experiment: MTT cytotoxicity assay, WRL-68 normal liver cells; type: cell-based, human; settings: Homo sapiens
Excerpt: (§1) The human cervical cancer cell-line, HeLa (CCL-2.2; ATCC, Manassas, VA), HCT-116 (CCL-247; ATCC, Manassas, VA), A549 (CCL-185; ATCC, Manassas, VA), HepG-2 (HB-8065; ATCC, Manassas, VA) and WRL-68 (CL-48; ATCC, Manassas, VA), were obtained from American Type Culture Collection (ATCC). HeLa, A549, HepG2 and WRL68 cells were maintained in Dulbecco’s Modified Eagle Medium (DMEM, Life Technologies, Inc, Rockville, MD). HCT-116 was obtained in McCoy’s 5a Medium Modified (Life Technologies, Inc, Rockville, MD) supplemented with 10 % fetal bovine serum and 1 % penicillin/streptomycin. Cells were incubated at 37 °C in a humidified cell culture 5 % CO2 incubator. Cells were passaged until reaching 70-80-% confluency for experimental purposes.
(§2) Cytotoxicity of MBIC was estimated by MTT assay. Briefly, 1 × 10^4 cells/well were seeded in a 96-well plate and incubated at 37 °C in 5 % CO2. After 24 h, cells were treated with different concentrations (0.02, 0.04, 0.1, 0.2, 0.4, 0.8, 1.5, 3, 6, 12, 25, 50 μM) of MBIC. 0.01 % DMSO was used as vehicle control. Cells were incubated for 24 and 48 h at 37 °C. Subsequently, 50 μl/well of 3-(4,5-dimethylthiazol-2-yl)-2,5-diphenyltetrazolium bromide (MTT, 2 mg/ml) was added and incubated for 2 h. After the incubation, the media was discarded and 100 μl DMSO was replaced into each well to dissolve the formazan crystal. The colorimetric assay was quantified at 570 nm wavelength using Chameleon V microplate reader (Hidex, Turku, Finland). The anti-proliferation activity of MBIC was expressed as an IC50 value. The percentage of cell viability was calculated as described previously.

[1] = Annexin V-FITC/PI apoptosis detection by flow cytometry; type: cell-based, human; settings: human, HeLa cells, read-out: viable cells (Q3, annexin V- PI-)
Description: (§3) Apoptosis was detected using BD Pharmingen Annexin V-FITC Apoptosis Detection Kit as per manufacturer’s protocol. Briefly, cells were seeded in 25 cm^2 culture flasks (10 × 10^5 cells/flask) and were treated in 3 different MBIC concentrations for 24 and 48 h. Later, treated cells were harvested and washed with 1 ml of 1X Phosphate Buffered-Saline (PBS) before adding 200 μl 1X annexin-binding buffer. 10 μl of annexin V-FITC and 10 μl of PI were added to each 200 μl of cell suspension. Cells were then incubated in total darkness for 15 min at room temperature. 500 μl of 1X annexin-binding buffer was added just before the flow cytometry analysis.

HeLa cells [2] = experiment: as above; type: cell-based, human; settings: 24 h
Description: as §3

[3] = system: human cancer cell lines (HCT-116, A549, HepG-2, HeLa); experiment: MTT cytotoxicity assay, human cancer cell lines taken together; type: cell-based
Excerpt: as §1
as §2, with “Subsequently, 50 μl/well of 3-(4,5-dimethylthiazol-2-yl)-2,5-diphenyltetrazolium bromide (MTT, 2 mg/ml) was added and incubated for 2 h. After the incubation, the media was discarded and 100 μl DMSO was replaced into each well to dissolve the formazan crystal.” left out

HeLa cells [4] = experiment: Cell cycle analysis (PI, flow cytometry); type: cell-based, human; settings: 24 h
Description: Cell cycle analysis was performed using propidium iodide (PI). Briefly, cells were seeded in a 25 cm^2 flask, then 60 % confluent cells were treated with MBIC for 24 and 48 h. Following incubation, the cells were harvested and spun down for 5 min at 2000 rpm. The supernatant was removed and cells were then fixed in 1 ml of ice-cold 70 % ethanol overnight at -80 °C. Fixed cells were washed with 1 ml 1X PBS and stained in 500 μl of PI containing 5 μg/ml DNase-free RNase for 30 min at room temperature in total darkness. DNA content of the cell was analyzed by flow cytometry. The percentage of G0-G1, S and G2-M cells were then calculated using Fluorescence-activated cell sorting (FACS) software (BD Biosciences).

[5] = system: HeLa cells expressing EGFP-α-tubulin, EGFP-CENP-A and histone H2B-mCherry; experiment: Live-cell imaging of mitotic spindle; type: cell-based, human; settings: MBIC 10 μM, nocodazole 2 μM; imaged at 15 min intervals
Description: HeLa cells expressing EGFP-α-tubulin, EGFP-CENP-A and histone H2B-mCherry were grown in glass chambers (Thermo Scientific, USA). Thirty minutes before imaging, the medium was changed to pre-warmed Leibovitz’s L-15 medium (Life Technologies) supplemented with 20 % fetal bovine serum and 20 mM HEPES, pH 7.0. Recordings were made in a temperature-controlled incubator at 37 °C. Images were collected with an Olympus IX-71 inverted microscope (Olympus) controlled by DeltaVision softWoRx (Applied Precision) using a 20x 0.75 NA UPlan SApochromat objective lens (Olympus). Z-series of six sections in 3 μm increments were captured every 15 min. Image stacks were projected.

HepG-2 cells = experiment: MTT cytotoxicity assay, HepG-2; type: cell-based, human; settings: for IC50: Homo sapiens, HepG2, MTT
Excerpt: as §1, §2

[6] = system: two breast cancer cell lines; parameters: method as in earlier work; settings: cited from earlier work
[7] = system: Bcl-2, Bax, cleaved caspase-3/7/9, cleaved PARP; experiment: Western blot, mitochondrial-dependent apoptotic proteins in HeLa cells; type: cell-based, human; settings: HeLa, 0.21, 0.42 and 1 μM, 24 h
Description: Western blot analysis was used to investigate protein expression levels. It was adopted by Suresh Kumar et al.. Briefly, 1 × 10^5 cells/flask was seeded and treated with MBIC in a dose-dependent manner for 24 h. Cells treated with colchicine and nocodazole served as positive controls. Cells were collected and lysed in RIPA buffer supplemented with a 10 μl protease inhibitor cocktail, sodium orthovanadate, and PMSF (Santa Cruz, USA). The lysate was stored at −80 °C until further use. A 40 μg of sample protein was resolved on 10 % SDS-PAGE and transferred to a polyvinylidene difluoride (PVDF) membrane (Merck Millipore, USA). The membrane was blocked in 5 % BSA for 1 h at room temperature following an overnight incubation at 4 °C with the following primary antibodies: Anti-Cyclin B1, anti-CDK1, anti-BubR1, anti-Aurora B, anti-cleaved PARP, anti-cleaved caspase-3/7/9, anti-Bcl-2 and anti-Bax (1:1000) (Cell Signaling Technology (CST), USA), mouse anti β-actin (1:40000) (Sigma-Aldrich, USA) antibodies.
Membranes were washed with 1X TBS-T prior to incubating with HRP-conjugated goat anti-mouse or anti-rabbit secondary antibodies for 2 h at room temperature. Membranes were washed 3 times with 1X TBS-T to remove excess antibodies before the proteins-antibody complex was detected with Amersham ECL prime western blotting detection reagent (GE Healthcare, USA). Western blot images were quantified and processed by ImageJ software (NIH, USA).

## COC(=O)c1ccc2[nH]c(-c3cc(F)ccc3O)nc2c1 [MBIC, Methyl 2-(5-fluoro-2-hydroxyphenyl)-1H-benzo[d]imidazole-5-carboxylate]
WRL-68 cells; WRL68, 24 hours
  IC50: 10.1 ± 1.2 µM
WRL-68 cells; WRL68, 48 hours
  IC50: 7.16 ± 0.9 µM
[1]; 0.21 μM
  viability at 24 h, 0.21 µM: 48.8%
[1]; 0.42 μM
  viability at 24 h, 0.42 µM: 36.2%
[1]; 1 μM
  viability at 24 h, 1 µM: 17.4%
HeLa cells [2]; 0.21 μM
  late apoptotic cells (Q2, annexin V+ PI+): 44.8 ± 2.3%
HeLa cells [2]; 1 μM
  late apoptotic cells (Q2, annexin V+ PI+): 74.8 ± 4.2%
[3]
  IC50: < 5 µM
HeLa cells [4]; 0.21 μM
  G2-M cell population: 26.7 ± 6.3%
HeLa cells [4]; 1 μM
  G2-M cell population: 42.8 ± 6.4%
[5]
  mitotic spindle formation in live-cell imaging: did not form the spindle
HepG-2 cells; HepG-2, 24 hours
  IC50: 2.92 ± 0.1 µM
HepG-2 cells; HepG-2, 48 hours
  IC50: 1.03 ± 0.09 µM
HepG-2 cells; IC50 WRL-68 / IC50 HepG-2, 24 hours
  SI (Selectivity Index): 3.45
HepG-2 cells; IC50 WRL-68 / IC50 HepG-2, 48 hours
  SI (Selectivity Index): 6.95
[6]
  cytotoxic effect compared to cisplatin: potent cytotoxic effect
[7]
  Bax protein level (Western blot): up-regulation
  Bcl-2 protein level (Western blot): down-regulation
  cleaved (activated) caspase-3/7/9 level (Western blot): increased
  cleaved PARP level (Western blot): increased level
